Laboratory results: ChEMBL document CHEMBL1152042, “Polyhydroxylated 3-(N-phenyl) carbamoyl-2-iminochromene derivatives as potent inhibitors of tyrosine kinase p60c-src” (Bioorg Med Chem Lett, 1995)

Columns and labels:
[1] = molecular target: Proto-oncogene tyrosine-protein kinase Src (Homo sapiens, UniProt P12931); assay: Inhibitory activity against p60 c-Src tyrosine kinase
[2] = molecular target: Tyrosine-protein kinase Fyn (Homo sapiens, UniProt P06241); assay: Inhibitory activity against p55 Fyn tyrosine kinase
Sequence of Tyrosine-protein kinase Fyn (P06241 whole entry): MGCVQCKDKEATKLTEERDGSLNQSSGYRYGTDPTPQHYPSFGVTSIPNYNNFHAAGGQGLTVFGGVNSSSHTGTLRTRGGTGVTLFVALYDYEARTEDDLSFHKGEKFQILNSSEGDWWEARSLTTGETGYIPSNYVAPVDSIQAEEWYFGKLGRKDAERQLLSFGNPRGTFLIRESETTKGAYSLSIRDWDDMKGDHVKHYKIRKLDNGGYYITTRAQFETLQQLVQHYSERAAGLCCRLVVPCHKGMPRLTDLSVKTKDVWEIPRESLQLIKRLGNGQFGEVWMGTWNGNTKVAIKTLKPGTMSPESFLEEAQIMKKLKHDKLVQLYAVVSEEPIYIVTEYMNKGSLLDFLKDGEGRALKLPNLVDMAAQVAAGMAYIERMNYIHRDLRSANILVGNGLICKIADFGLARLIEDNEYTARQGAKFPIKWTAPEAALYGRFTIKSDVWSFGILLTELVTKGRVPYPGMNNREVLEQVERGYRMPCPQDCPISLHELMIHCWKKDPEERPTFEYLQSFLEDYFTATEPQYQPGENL

[3] = molecular target: Tyrosine-protein kinase Lck (Homo sapiens, UniProt P06239); assay: Inhibitory activity against p56 Lck tyrosine kinase
Sequence of Tyrosine-protein kinase Lck (P06239 whole entry): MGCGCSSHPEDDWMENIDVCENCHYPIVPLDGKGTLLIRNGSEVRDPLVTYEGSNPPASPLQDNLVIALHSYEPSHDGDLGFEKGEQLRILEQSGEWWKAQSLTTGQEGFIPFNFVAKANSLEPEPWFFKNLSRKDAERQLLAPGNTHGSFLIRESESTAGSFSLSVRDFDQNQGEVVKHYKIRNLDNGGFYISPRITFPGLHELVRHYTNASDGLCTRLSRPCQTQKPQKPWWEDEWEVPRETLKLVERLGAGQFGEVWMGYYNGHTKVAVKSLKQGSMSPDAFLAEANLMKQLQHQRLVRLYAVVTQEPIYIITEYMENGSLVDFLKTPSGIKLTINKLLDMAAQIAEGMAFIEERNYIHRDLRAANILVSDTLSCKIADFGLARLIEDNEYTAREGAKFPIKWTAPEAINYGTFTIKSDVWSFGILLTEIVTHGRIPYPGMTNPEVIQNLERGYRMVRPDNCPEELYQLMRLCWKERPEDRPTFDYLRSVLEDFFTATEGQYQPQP

[4] = molecular target: Tyrosine-protein kinase Lyn (Homo sapiens, UniProt P07948); assay: Inhibitory activity against p56 Lyn tyrosine kinase
Sequence of Tyrosine-protein kinase Lyn (P07948 whole entry): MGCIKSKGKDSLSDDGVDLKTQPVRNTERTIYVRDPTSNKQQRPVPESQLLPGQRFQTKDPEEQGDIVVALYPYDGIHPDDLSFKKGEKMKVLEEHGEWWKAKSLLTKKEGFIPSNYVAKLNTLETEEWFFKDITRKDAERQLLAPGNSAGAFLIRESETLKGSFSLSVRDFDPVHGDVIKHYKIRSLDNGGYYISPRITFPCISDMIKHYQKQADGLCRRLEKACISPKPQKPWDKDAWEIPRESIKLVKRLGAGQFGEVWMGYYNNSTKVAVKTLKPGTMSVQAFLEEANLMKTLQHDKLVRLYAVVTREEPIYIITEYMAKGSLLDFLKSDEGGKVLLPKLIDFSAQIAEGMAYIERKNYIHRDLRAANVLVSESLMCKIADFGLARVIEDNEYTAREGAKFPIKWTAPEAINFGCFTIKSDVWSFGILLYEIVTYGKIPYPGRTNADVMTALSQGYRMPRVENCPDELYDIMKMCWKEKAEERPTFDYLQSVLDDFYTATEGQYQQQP

Sequence of Proto-oncogene tyrosine-protein kinase Src (P12931 2-536 limits assumed): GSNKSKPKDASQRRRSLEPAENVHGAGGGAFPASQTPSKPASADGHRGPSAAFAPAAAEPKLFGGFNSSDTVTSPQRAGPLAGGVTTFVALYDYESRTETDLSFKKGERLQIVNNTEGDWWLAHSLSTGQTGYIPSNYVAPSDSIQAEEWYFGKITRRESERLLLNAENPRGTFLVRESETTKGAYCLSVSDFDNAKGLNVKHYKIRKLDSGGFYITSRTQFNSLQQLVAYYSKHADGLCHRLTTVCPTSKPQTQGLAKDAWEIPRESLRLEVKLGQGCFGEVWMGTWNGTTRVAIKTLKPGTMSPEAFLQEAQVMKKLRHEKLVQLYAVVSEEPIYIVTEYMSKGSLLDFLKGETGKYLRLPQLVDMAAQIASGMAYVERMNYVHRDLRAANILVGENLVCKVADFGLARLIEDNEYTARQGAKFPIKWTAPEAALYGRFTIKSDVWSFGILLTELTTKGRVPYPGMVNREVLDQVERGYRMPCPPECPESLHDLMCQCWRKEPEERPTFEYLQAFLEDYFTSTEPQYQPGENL

Compound: N=c1oc2ccccc2cc1C(=O)Nc1ccc(O)cc1
- IC50 [1]: > 71.4 µM

Compound: N=c1oc2c(O)c(O)ccc2cc1C(=O)Nc1cccc(O)c1
- IC50 [2]: > 64 µM

Compound: N=c1oc2cc(O)ccc2cc1C(=O)Nc1ccc(O)cc1
- IC50 [3]: > 33.8 µM

Compound: N=c1oc2ccc(O)cc2cc1C(=O)Nc1cccc(O)c1
- IC50 [3]: > 33.8 µM

Compound: N=c1oc2cc(O)cc(O)c2cc1C(=O)Nc1ccccc1O
- IC50 [4]: > 16 µM

Compound: N=c1oc2ccc(O)cc2cc1C(=O)Nc1ccc(O)cc1
- IC50 [3]: > 33.8 µM

Compound: N=c1oc2cc(O)ccc2cc1C(=O)Nc1cccc(O)c1
- IC50 [3]: > 33.8 µM

Compound: N=c1oc2ccccc2cc1C(=O)Nc1ccccc1O
- IC50 [1]: > 71.4 µM

Compound: N=c1oc2c(O)c(O)ccc2cc1C(=O)Nc1ccccc1CO
- IC50 [2]: > 61.3 µM
- IC50 [4]: > 61.3 µM

Compound: N=c1oc2c(O)c(O)ccc2cc1C(=O)Nc1cccc(CO)c1
- IC50 [2]: > 61.3 µM
- IC50 [3]: > 61.3 µM

Compound: N=c1oc2c(O)cccc2cc1C(=O)Nc1ccc(O)cc1
- IC50 [2]: > 67.5 µM

Compound: N=c1oc2c(O)c(O)ccc2cc1C(=O)Nc1ccccc1O
- IC50 [2]: > 64 µM
- IC50 [4]: > 64 µM

Compound: N=c1oc2c(O)c(O)ccc2cc1C(=O)Nc1ccc(O)cc1
- IC50 [2]: > 64 µM
- IC50 [4]: > 64 µM

Compound: COc1ccc2cc(C(=O)Nc3ccc(O)cc3)c(=N)oc2c1
- IC50 [1]: > 32.2 µM
- IC50 [3]: > 32.2 µM

Compound: N=c1oc2c(O)cccc2cc1C(=O)Nc1cccc(O)c1
- IC50 [4]: < 33.8 µM

Compound: N=c1oc2c(O)c(O)ccc2cc1C(=O)Nc1ccccc1
- IC50 [2]: > 67.5 µM
- IC50 [4]: > 67.5 µM
- IC50 [1]: > 67.5 µM
- IC50 [3]: > 67.5 µM

Compound: N=c1oc2c(O)cccc2cc1C(=O)Nc1ccccc1O
- IC50 [2]: > 67.5 µM
- IC50 [4]: > 67.5 µM
- IC50 [1]: > 33.8 µM

Compound: N=c1oc2c(O)cccc2cc1C(=O)Nc1cccc(CO)c1
- IC50 [2]: 9.67 µM
- IC50 [4]: 64.5 µM
